Experimental data published in patent US20250188110A1, “SPECIFIC SMALL MOLECULE INHIBITORS THAT BLOCK KMT9 METHYLTRANSFERASE ACTIVITY AND FUNCTION” (ALBERT-LUDWIGS-UNIVERSITÄT FREIBURG, priority 2021, published 2025).

Legend:
22RV1 = assay: Further cell proliferation assay, X-Celligence RTCA, 22RV1; type: cell-based; details: Homo sapiens; 22RV1, castration resistant prostate cancer cells
Method: (§1) Compound no. 1 (Name 287) was tested in further cell proliferation assays using different cancer cell lines. Cell proliferation was determined using X-Celligence RTCA system (Roche). For real-time recording of CAL-29, VM-CUB1, SW480, SKBR3, HT-1376, PC-3M, A549, UM-UC-3, DU145 and 22RV1, between 2500 and 20000 cells/well (depending on the cell type) were seeded in 16 well E-plates (Roche). Cells were seeded in presence of DMSO or Compound no. 1 (Name 287) 24 h before seeding in E-plates. Cell indices were automatically recorded every 15 minutes. Relative velocities represent the change of the cell index over time. The ECso values of compound no.

CAL-29 = assay: Further cell proliferation assay, X-Celligence RTCA, CAL-29; type: cell-based
Method: as §1

PC-3M = assay: Further cell proliferation assay, X-Celligence RTCA, PC-3M; type: cell-based; details: Homo sapiens, castration resistant prostate cancer cells
Method: as §1

HT-1376 = assay: Further cell proliferation assay, X-Celligence RTCA, HT-1376; type: cell-based; details: Homo sapiens
Method: as §1

DU145 = assay: Further cell proliferation assay, X-Celligence RTCA, DU145; type: cell-based; details: Homo sapiens, DU-145; DU145, castration resistant prostate cancer cells
Method: as §1

UM-UC-3 = assay: Further cell proliferation assay, X-Celligence RTCA, UM-UC-3; type: cell-based; details: Homo sapiens, UMUC3
Method: as §1

SKBR3 = assay: Further cell proliferation assay, X-Celligence RTCA, SKBR3; type: cell-based; details: Homo sapiens, SK-BR-3
Method: as §1

A549 = assay: Further cell proliferation assay, X-Celligence RTCA, A549; type: cell-based; details: Homo sapiens
Method: as §1

VM-CUB1 = assay: Further cell proliferation assay, X-Celligence RTCA, VM-CUB1; type: cell-based; details: Homo sapiens, VM-CUB-1
Method: as §1

SW480 = assay: Further cell proliferation assay, X-Celligence RTCA, SW480; type: cell-based; details: Homo sapiens
Method: as §1

KMT9 [1] = target: T1, KMT9 (Homo sapiens, UniProt Q9Y5N5); assay: KMT9 thermal shift assay (SyproOrange); type: binding; details: 500 µM compound, 2 μM KMT9; read-out: Thermal shift (ΔTm)
T1 sequence (Q9Y5N5 1-214): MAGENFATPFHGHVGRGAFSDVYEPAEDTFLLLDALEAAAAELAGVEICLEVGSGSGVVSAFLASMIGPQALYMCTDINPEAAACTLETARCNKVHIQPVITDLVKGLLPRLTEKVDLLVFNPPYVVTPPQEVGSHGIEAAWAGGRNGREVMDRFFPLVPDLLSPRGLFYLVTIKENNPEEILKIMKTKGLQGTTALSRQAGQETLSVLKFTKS
T1 sequence (Q9UI30 1-120 isoform Q9UI30-2 partner): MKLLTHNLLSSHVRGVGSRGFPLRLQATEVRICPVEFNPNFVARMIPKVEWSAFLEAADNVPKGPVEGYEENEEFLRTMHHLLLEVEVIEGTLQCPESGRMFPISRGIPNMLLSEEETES
Method in brief: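 Recombinant KMT9 was incubated with compound and SyproOrange at 25° C in 50 mM BTP pH 8.5, 1 mM MgCl2, 1 mM DTT. It was then heated from 20° C to 95° C at 1° C per 15 s with fluorescence read each step. Tm came from a Boltzmann sigmoidal fit; ΔTm relative to DMSO control, binned in 5 K ranges.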

KMT9 [2] = target: T1, KMT9; assay: Microscale thermophoresis (MST) KMT9 binding; details: His-tag labelled KMT9 20 nM; read-out: MST (Kd)
Method in brief: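 His-tagged KMT9 (20 nM), RED-Tris-NTA labelled, titrated with varying compound concentrations in 25 mM HEPES pH 7.5, 100 mM NaCl, 1 mM DTT, 0.05% Tween. MST at 40% MST and 100% LED power, Nano-RED excitation; Kd binned A ≤10 nM, B 10–100, C 100–1000, D >1000 nM.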

KMT9 [3] = target: T1, KMT9; assay: KMT9 methyltransferase inhibition assay, MTaseGlo luminescence (from entry 155); type: biochemical; details: MTaseGlo procedure (entries from 155); 100 nM KMT9, 5 μM ETF1, 1 μM SAM; read-out: Inhibition (IC50)
Method in brief: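 KMT9 (100 nM final) pre-incubated with inhibitor for 15 min at room temperature, then reacted with 5 μM ETF1 and 1 μM SAM for 2 h at 30° C. at 2% DMSO final. MTaseGlo luminescence read after 60 min detection; IC50 reported in four potency bins.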

SMILES | ΔTm at 500 µM (KMT9 [1]) [°C] | Kd (KMT9 [2]) [nM] | IC50 (KMT9 [3]) [nM] | further results
CNc1ncnc2c1ccn2[C@@H]1C[C@H](CNCCCNCCc2cccc(Oc3ccccc3)c2)[C@@H](O)[C@H]1O [Compound 287, (1R,2S,3R,5R)-3-(4-(methylamino)-7H-pyrrolo[2,3-d]pyrimidin-7-yl)-5-(((3-((3-phenoxyphenethyl)amino)propyl)amino)methyl) cyclopentane-1,2-diol] |  |  |  | EC50 (22RV1): 16600 nM; EC50 (CAL-29): 6450 nM; EC50 (PC-3M): 15800 nM; EC50 (HT-1376): 12600 nM; EC50 (DU145): 19000 nM; EC50 (UM-UC-3): 17000 nM; EC50 (SKBR3): 6600 nM; EC50 (A549): 12000 nM; EC50 (VM-CUB1): 6170 nM; EC50 (SW480): 9120 nM
Nc1nc(Cl)nc2c1ccn2[C@@H]1C[C@H](c2cccc(OC(F)(F)F)c2)[C@@H](O)[C@H]1O [Compound 668, (1R,2S,3R,5R)-3-(4-amino-2-chloro-7H-pyrrolo[2,3-d]pyrimidin-7-yl)-5-(3-(trifluoromethoxy)phenyl)cyclopentane-1,2-diol] | ≤ 10 | 100 to 1000 | 1000 to 10000 | 
COc1cccc([C@H]2C[C@@H](n3cc(Br)c4c(N)nc(Cl)nc43)[C@H](O)[C@@H]2O)c1 [Compound 669, (1R,2S,3R,5R)-3-(4-amino-5-bromo-2-chloro-7H-pyrrolo[2,3-d]pyrimidin-7-yl)-5-(3-methoxyphenyl)cyclopentane-1,2-diol] | 10 to 15 | 10 to 100 | 1000 to 10000 | 
COc1cccc([C@H]2C[C@@H](n3ccc4c(N)nc(Cl)nc43)[C@H](O)[C@@H]2O)c1 [Compound 670, (1R,2S,3R,5R)-3-{4-amino-2-chloropyrrolo[2,3-d]pyrimidin-7-yl}-5-(3-methoxyphenyl)cyclopentane-1,2-diol] | 10 to 15 | ≤ 10 | 100 to 1000 | 
COc1cccc([C@H]2C[C@@H](n3cc(-c4ccn(C)n4)c4c(N)nc(Cl)nc43)[C@H](O)[C@@H]2O)c1 [Compound 671, (1R,2S,3R,5R)-3-(4-amino-2-chloro-5-(1-methyl-1H-pyrazol-3-yl)-7H-pyrrolo[2,3-d]pyrimidin-7-yl)-5-(3-methoxyphenyl)cyclopentane-1,2-diol] | 10 to 15 | 10 to 100 | 1000 to 10000 | 
Nc1nc(Cl)nc2c1ccn2[C@@H]1C[C@H](c2cccc(CN3CCC3)c2)[C@@H](O)[C@H]1O [Compound 672, (1R,2S,3R,5R)-3-(4-amino-2-chloro-7H-pyrrolo[2,3-d]pyrimidin-7-yl)-5-(3-(azetidin-1-ylmethyl)phenyl)cyclopentane-1,2-diol] | 10 to 15 | 10 to 100 | 100 to 1000 | 
Nc1nc(Cl)nc2c1c(Br)cn2[C@@H]1C[C@H](c2cccc(CN3CCC3)c2)[C@@H](O)[C@H]1O [Compound 673, (1R,2S,3R,5R)-3-(4-amino-5-bromo-2-chloro-7H-pyrrolo[2,3-d]pyrimidin-7-yl)-5-(3-(azetidin-1-ylmethyl)phenyl)cyclopentane-1,2-diol] | 15 to 20 | ≤ 10 | 100 to 1000 | 
Cn1ccc(-c2cn([C@@H]3C[C@H](c4cccc(CN5CCC5)c4)[C@@H](O)[C@H]3O)c3nc(Cl)nc(N)c23)n1 [Compound 674, (1R,2S,3R,5R)-3-(4-amino-2-chloro-5-(1-methyl-1H-pyrazol-3-yl)-7H-pyrrolo[2,3-d]pyrimidin-7-yl)-5-(3-(azetidin-1-ylmethyl)phenyl)cyclopentane-1,2-diol] | 15 to 20 | ≤ 10 | 100 to 1000 | 
Cn1cc(Cl)c(-c2cn([C@@H]3C[C@H](c4cccc(CN5CCC5)c4)[C@@H](O)[C@H]3O)c3nc(Cl)nc(N)c23)n1 [Compound 675, (1R,2S,3R,5R)-3-(4-amino-2-chloro-5-(4-chloro-1-methyl-1H-pyrazol-3-yl)-7H-pyrrolo[2,3-d]pyrimidin-7-yl)-5-(3-(azetidin-1-ylmethyl)phenyl)cyclopentane-1,2-diol] | 15 to 20 | ≤ 10 | 100 to 1000 | 
Nc1nc(Cl)nc2c1ccn2[C@@H]1C[C@H](c2cccc(OC(F)F)c2)[C@@H](O)[C@H]1O [Compound 676, (1R,2S,3R,5R)-3-{4-amino-2-chloropyrrolo[2,3-d]pyrimidin-7-yl}-5-[3-(difluoromethoxy)phenyl]cyclopentane-1,2-diol] | ≤ 10 | 10 to 100 | 1000 to 10000 | 
COc1cc(OC)cc([C@H]2C[C@@H](n3cc(Br)c4c(N)nc(Cl)nc43)[C@H](O)[C@@H]2O)c1 [Compound 677, (1R,2S,3R,5R)-3-{4-amino-5-bromo-2-chloropyrrolo[2,3-d]pyrimidin-7-yl}-5-(3,5-dimethoxyphenyl)cyclopentane-1,2-diol] | 10 to 15 | 10 to 100 | 1000 to 10000 | 
COc1cc(OC)cc([C@H]2C[C@@H](n3cc(-c4ccn(C)n4)c4c(N)nc(Cl)nc43)[C@H](O)[C@@H]2O)c1 [Compound 678, (1R,2S,3R,5R)-3-[4-amino-2-chloro-5-(1-methylpyrazol-3-yl)pyrrolo[2,3-d]pyrimidin-7-yl]-5-(3,5-dimethoxyphenyl)cyclopentane-1,2-diol] | 10 to 15 | 100 to 1000 | 1000 to 10000 | 
COc1cc(OC)cc([C@H]2C[C@@H](n3cc(-c4ccn(Cc5ccccc5)n4)c4c(N)nc(Cl)nc43)[C@H](O)[C@@H]2O)c1 [Compound 679, (1R,2S,3R,5R)-3-[4-amino-5-(1-benzylpyrazol-3-yl)-2-chloropyrrolo[2,3-d]pyrimidin-7-yl]-5-(3,5-dimethoxyphenyl)cyclopentane-1,2-diol] | ≤ 10 | 100 to 1000 | 1000 to 10000 | 
COc1cc([C@H]2C[C@@H](n3cc(Br)c4c(N)nc(Cl)nc43)[C@H](O)[C@@H]2O)ccn1 [Compound 680, (1R,2S,3R,5R)-3-(4-amino-5-bromo-2-chloro-7H-pyrrolo[2,3-d]pyrimidin-7-yl)-5-(2-methoxypyridin-4-yl)cyclopentane-1,2-diol] | 10 to 15 | 10 to 100 | 100 to 1000 | 
Nc1cc(-c2cnsc2)cc([C@H]2C[C@@H](n3ccc4c(N)nc(Cl)nc43)[C@H](O)[C@@H]2O)c1 [Compound 681, (1R,2S,3R,5R)-3-(4-Amino-2-chloro-7H-pyrrolo[2,3-d]pyrimidin-7-yl)-5-(3-amino-5-(isothiazol-4-yl)phenyl)cyclopentane-1,2-diol] | 10 to 15 | 10 to 100 | 100 to 1000 | 
COc1ccc([C@H]2C[C@@H](n3ccc4c(N)nc(Cl)nc43)[C@H](O)[C@@H]2O)cc1 [Compound 682, (1R,2S,3R,5R)-3-{4-Amino-2-chloropyrrolo[2,3-d]pyrimidin-7-yl}-5-(4-methoxyphenyl)cyclopentane-1,2-diol] | 10 to 15 | 10 to 100 | 100 to 1000 | 
